In patent US11905244B2, “Chemical modulators of store-operated calcium channels and their therapeutic applications” (The Texas A&M University System, priority 2017, dated 2024):
Entries after “also recorded” stand apart in the source; their conditions may differ. Where two headings read alike, the source gives them in different places.

What was measured:
CRAC channel = CRAC channel (Homo sapiens (Human), UniProt Q96D31); assay: GFP-NFAT translocation-based high-content screening (TG-stimulated HeLa cells stably expressing GFP-NFAT); format: cell-based; conditions: for Inhibitory activity on CRAC channel in primary screening (NFAT nucleus-to-cytosol ratio): 200 μM compound
Sequence of CRAC channel (Q96D31 whole entry): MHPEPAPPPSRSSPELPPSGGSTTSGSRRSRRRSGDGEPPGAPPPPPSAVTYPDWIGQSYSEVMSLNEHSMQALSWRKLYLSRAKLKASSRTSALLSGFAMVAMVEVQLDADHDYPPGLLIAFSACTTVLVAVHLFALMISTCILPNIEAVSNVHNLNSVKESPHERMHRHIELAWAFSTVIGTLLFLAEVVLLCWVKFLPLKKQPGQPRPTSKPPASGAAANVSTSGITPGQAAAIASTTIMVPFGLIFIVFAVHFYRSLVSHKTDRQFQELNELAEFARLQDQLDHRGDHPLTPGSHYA
Description: It is known that thapsigargin (TG) can induce the CRAC channel to open resulting in the calcium influx. The elevation of calcium in cytoplasm can activate the Ca^2+-calcineurin-NFAT pathway followed by NFAT translocation from the cytoplasm to the nucleus to regulate gene transcription. Therefore, the inventors built a GFP-NFAT translocation-based high-content screening method to evaluate the activity of compounds on CRAC channel. Briefly, a HeLa cell line stably expressing GFP-NFAT was established and used, and the images after chemical stimulation in the presence of TG were acquired using an IN Cell Analyzer 6000 confocal laser imaging system, and then the GFP fluorescent intensity ratio between cytoplasm and nucleus was analyzed to reflect the inhibitory activity of compound on CRAC channel.
Briefly, GFP-NFAT stable cells were cultured in Dulbecco's modified eagle's medium (DMEM) supplemented with 10% FBS in 5% carbon dioxide at 37° C. When it reached 90% confluency, a cell suspension with a concentration of […] was prepared, and an amount of 2000 cells per well (25 μL/well) was seeded in 384 well plate, putting it at the room temperature for 1 h to make sure the cells distribute evenly, then the cells were incubated overnight. First, primary screening of the selected compounds was conducted. A series of compound solutions with a concentration of 200 μM in MEDM medium were prepared in a 96 well plate and then added to a 384 well plate using a Beckman Coulter automatic drug adding system, in 4 duplicates, and incubated for 30 min at 37° C. SKF was selected as the positive control. Then, 1 μM TG and 1 mM Ca^2+ were added to 384-well plate using Beckman Coulter automatic drug adding system and incubated for 20 min. Subsequently, 384 well plate was gently washed with PBS twice, and the cells were fixed with 4% PFA (25 μl per well) for 10˜15 mins at room temperature, then washed with PBS gently, added 0.5% Triton X-100 (25 μL per well), and incubated for 5 mins aFt room temperature, stained with DAPI (1 μg/mL) for 5˜10 mins at room temperature, washed with PBS and added 30 μL PBS per well to image on confocal laser imaging system (objective lens: 10×, FITC and UV). Using Pipeline Plot software (NAFT translocation protocol), the intensity of green fluorescence was analyzed in nucleus and cytosol, calculate the ratio of nucleus:cytosol, normalize TG stimulate NFAT translocation as 1 and no TG adding as 0. Finally, the data was analyzed using GraphPad Prism 5 software.

[1] = system: MDA-MB-231 breast cancer cells; assay: Migration assay (wound healing assay); format: cell-based; conditions: MDA-MB-231, wound healing assay
Description: The effect of compounds on inhibiting migration was evaluated using wound healing assay. Briefly, cells were seeded in a six well-plate, and a wound was generated by scratching the cell monolayer with a 200 μL pipette tip. Then, cells were continued to be cultured in the presence or absence of compounds, and the photographic recording was performed at 0 h, 24 h, and 48 h respectively. The number of the migrated cells was calculated with ImageJ software.

[2] = system: MDA-MB-231 breast cancer cells; assay: Invasion assay; format: cell-based
[3] = system: IL-2 and IFNγ expression in Jurkat cell; assay: Cytokine expression in Jurkat cells; format: cell-based
[4] = system: azoxymethane (AOM)-induced mouse colon cancer model; assay: Azoxymethane (AOM)-induced mouse colon cancer model; format: in vivo; conditions: treated for 8 weeks
Description: To induce colon cancer in situ, mice (four month old) were randomly divided into three groups: (1) AOM control group; (2) Compound 53 group, (3) CsA group, and injected with AOM subcutaneously (10 mg/kg body weight) once a week for 4 weeks. Then, Compound 53 and CsA group were treated with Compound 53 and CsA respectively for 8 weeks, and the control group was treated with 0.9% NaCl solution. Then, mice were killed and the colon was isolated. The number of the tumors formed was analyzed.

[5] = system: cytokine IL-2 expression in primary T cells; assay: Effect of compounds on cytokine expression in primary T cells (flow cytometry); format: cell-based; conditions: Mus musculus, T-cell
Description: The lymph nodes and a spleen from mouse were collected, and then the immune cells were induced to differentiate towards Th1 cells in presence of α-CD3, α-CD28, IL-12, and IL-2. After obtaining Th1 cells, the cells were amplified and then the cells were treated with drugs. The expression level of the cytokine was analyzed using flow cytometry.

[6] = Table 1, hits from virtual screening, unit inferred, read-out: IC50 Value
[7] = Table 2, unit inferred, read-out: IC50 of the compounds (inhibitory activity on CRAC channel)
[8] = GFP-NFAT translocation assay, read-out: IC50 on CRAC channel

Row | Compound | IC50 (CRAC channel; [6]) [µM] | IC50 (CRAC channel; [7]) [µM] | also measured
1 | O=C(O)[C@H]1CC(=O)N(c2ccc(I)cc2)C1 [Compound 39] | > 200 |  | 
2 | COc1ccc(N2C(=O)CC(S/C(=N/c3cc(OC)ccc3OC)NCCc3ccc(S(N)(=O)=O)cc3)C2=O)cc1 (centres unmarked) [Compound 109] |  | > 200 | 
3 | CCN/C(=N/c1ccc2c(c1)OCO2)SC1CC(=O)N(c2ccc(C(=O)OC)cc2)C1=O (centres unmarked) [Compound 66] |  | 10.5 | Cell migration [1]: greatly inhibit; Inhibitory activity on CRAC channel in primary screening (NFAT nucleus-to-cytosol ratio) (CRAC channel): good inhibition
4 | CNC(=O)c1ccc(N2C(=O)CC(S/C(=N/c3ccccc3)NC(C)(C)C)C2=O)cc1 (centres unmarked) [Compound 95] |  | > 200 | 
5 | CCN/C(=N\c1ccccc1)SC1CC(=O)N(c2ccc(C(=O)OC)cc2)C1=O (centres unmarked) [Compound 76] |  | > 200 | 
6 | COC(=O)c1ccc(N2C(=O)CC(S/C(=N\c3ccccc3)NCc3ccc4c(c3)OCO4)C2=O)cc1 (centres unmarked) [Compound 58] |  | > 200 | 
7 | CCOC(=O)c1ccc(N2C(=O)CC(S/C(=N/c3cc(OC)ccc3OC)NCCc3ccc(S(N)(=O)=O)cc3)C2=O)cc1 (centres unmarked) [Compound 110] |  | > 200 | 
8 | Cc1nn(-c2ccc([N+](=O)[O-])cc2)c(Cl)c1S(=O)(=O)O [Compound 38] | > 200 |  | 
9 | Cc1cc(C)c(S(=O)(=O)Nc2ccc(O)c(C(=O)O)c2)c(C)c1 [Compound 06] | > 200 |  | 
10 | CCOC(=O)c1ccc(N2C(=O)CC(S/C(=N/c3ccccc3)NCCc3ccc(S(N)(=O)=O)cc3)C2=O)cc1 (centres unmarked) [Compound 103] |  | 15.8 | 
11 | Cc1ccc(N2C(=O)CC(Sc3nc4ccccc4n3CCc3ccc(S(N)(=O)=O)cc3)C2=O)cc1 (centres unmarked) [Compound 119] |  | > 200 | 
12 | Cc1nn([C@H](CC(=O)O)C(=O)O)c(C)c1I [Compound 29] | > 200 |  | 
13 | CCOC(=O)c1ccc(N2C(=O)CC(S/C(=N/c3ccc(C)cc3)NCCc3ccc(S(N)(=O)=O)cc3)C2=O)cc1 (centres unmarked) [Compound 116] |  | > 200 | 
14 | CNC(=O)c1ccc(N2C(=O)CC(S/C(=N/c3ccccc3)NC)C2=O)cc1 (centres unmarked) [Compound 89] |  | > 200 | 
15 | COc1ccc(/N=C(\NCCc2ccc(S(N)(=O)=O)cc2)SC2CC(=O)N(c3ccc(C)cc3)C2=O)cc1 (centres unmarked) [Compound 114] |  | > 200 | 
16 | NS(=O)(=O)c1ccc(CCNC(=S)Nc2cccnc2)cc1 [Compound 97] |  | > 200 | 
17 | Nc1nc(C(=O)O)nn1C12CC3CC(CC(C3)C1)C2 [Compound 48] | > 200 |  | 
18 | Cc1ccc(N2C(=O)c3ccc(C(=O)O)cc3C2=O)cc1Cl [Compound 42] | > 200 |  | 
19 | COc1ccc(/N=C(\NCCc2ccc(S(N)(=O)=O)cc2)SC2CC(=O)N(c3ccccc3)C2=O)cc1 (centres unmarked) [Compound 111] |  | 1.6 | 
20 | CNC(=O)c1ccc(N2C(=O)CC(S/C(=N/c3ccccc3)NCCc3ccc(S(N)(=O)=O)cc3)C2=O)cc1 (centres unmarked) [Compound 99] |  | 18.2 | 
21 | CCCN/C(=N\c1ccccc1)SC1CC(=O)N(c2ccc(C(=O)OCC)cc2)C1=O (centres unmarked) [Compound 84] |  | > 200 | 
22 | O=C(O)c1ccc(N2C(=O)c3cccc4cc(Br)cc(c34)C2=O)cc1 [Compound 24] | > 200 |  | 
23 | O=C(O)c1ccc(C(=O)Nc2ccc(Br)cc2)c(C(=O)O)c1 [Compound 33] | > 200 |  | 

Row | Compound | IC50 (CRAC channel; [6]) [µM] | IC50 (CRAC channel; [7]) [µM] | also measured
24 | CN/C(=N/c1cccc(OC)c1)SC1CC(=O)N(c2ccc(C(=O)O)cc2)C1=O (centres unmarked) [Compound 71] |  | > 200 | 
25 | O=C1CCC(=O)N1c1ccc(S(=O)(=O)O)cc1 [Compound 36] | > 200 |  | 
26 | CCCN/C(=N\c1ccccc1)SC1CC(=O)N(c2ccc(C(=O)NC)cc2)C1=O (centres unmarked) [Compound 91] |  | > 200 | 
27 | CCOc1cc(Cl)c(S(=O)(=O)N2CCC(C(=O)O)CC2)cc1Cl [Compound 19] | > 200 |  | 
28 | COC(=O)c1ccc(N2C(=O)CC(S/C(=N\c3cccc(C(F)(F)F)c3)NCCc3ccc(OC)c(OC)c3)C2=O)cc1 (centres unmarked) [Compound 67] |  | > 200 | 
29 | Cc1cc(C)n(-c2ccc(S(=O)(=O)O)cc2)n1 [Compound 43] | > 200 |  | 
30 | CN/C(=N/c1ccccc1OC)SC1CC(=O)N(c2ccc(C(=O)OC)cc2)C1=O (centres unmarked) [Compound 63] |  | 74.4 | 
31 | Cc1cc(=O)n2c3c(cc(S(=O)(=O)NCc4ccc(C(=O)O)cc4)cc13)CC2 [Compound 12] | > 200 |  | 
32 | CC(=C\C(=O)O)/C(=C/c1ccc(C)o1)C(=O)O [Compound 27] | > 200 |  | 
33 | CCOC(=O)c1ccc(N2C(=O)CC(S/C(=N/c3ccccc3)NC(C)C)C2=O)cc1 (centres unmarked) [Compound 86] |  | 6.34 | 
34 | COC(=O)c1ccc(N2C(=O)CC(S/C(=N/c3ccccc3)NC(C)(C)C)C2=O)cc1 (centres unmarked) [Compound 81] |  | > 200 | 
35 | CCOC(=O)c1ccc(N2C(=O)CC(SCc3nnnn3-c3ccccc3)C2=O)cc1 (centres unmarked) [Compound 57] |  | > 200 | 
36 | O=C(CCCc1nc(-c2ccccc2)no1)Nc1ccc(C(=O)O)cc1 [Compound 13] | > 200 |  | 
37 | CN/C(=N/c1cc(Cl)ccc1Cl)SC1CC(=O)N(c2ccc(C(=O)OC)cc2)C1=O (centres unmarked) [Compound 65] |  | 30.6 | Cell migration [1]: greatly inhibit; Inhibitory activity on CRAC channel in primary screening (NFAT nucleus-to-cytosol ratio) (CRAC channel): good inhibition
38 | Cc1c(C(=O)O)nnn1-c1ccc(Br)cc1 [Compound 32] | > 200 |  | 
39 | CN/C(=N/c1ccc(C)c(Cl)c1)SC1CC(=O)N(c2ccc(C(=O)O)cc2)C1=O (centres unmarked) [Compound 60] |  | > 200 | 
40 | COC(=O)c1ccc(N2C(=O)CC(S/C(=N\c3ccccc3)NCCc3ccc(S(N)(=O)=O)cc3)C2=O)cc1 (centres unmarked) [Compound 53] |  | 13 | Cell migration [1]: greatly inhibit; Inhibitory activity on CRAC channel in primary screening (NFAT nucleus-to-cytosol ratio) (CRAC channel): good inhibition; IC50 (CRAC channel; [8]): 8.14 µM; Cell invasion [2]: greatly inhibit; IL-2 and IFNγ (cytokine) expression [3]: inhibit IL-2 and IFNγ expression; also recorded: inhibits cytokine expression; Antitumor activity compared with positive control drug CsA [4]: better than the positive control drug CsA; Number of the formed tumors in the colon [4]: greatly decrease the number of the formed tumors; also recorded: reducing the number of tumors formed compared to the control group; IC50 [5]: 15.6 ± 1.17 µM
41 | CC(SC1N=C(c2ccccc2)C(c2ccccc2)=N1)C(=O)O (centres unmarked) [Compound 22] | > 200 |  | 
42 | CCN/C(=N\c1cccc(C(F)(F)F)c1)S[C@H]1CC(=O)N(c2ccc(C(=O)O)cc2)C1=O [Compound 03] | 144 |  | Inhibitory activity on CRAC channel in primary screening (NFAT nucleus-to-cytosol ratio) (CRAC channel): good activity; IC50 (CRAC channel; [8]): ~100 µM
43 | COc1ccc(N2C(=O)CC(Sc3nc4ccccc4n3CCc3ccc(S(N)(=O)=O)cc3)C2=O)cc1 (centres unmarked) [Compound 118] |  | > 200 | 
44 | COc1ccc(/N=C(\NCCc2ccc(S(N)(=O)=O)cc2)SC2CC(=O)N(c3ccc(OC)cc3)C2=O)cc1 (centres unmarked) [Compound 108] |  | > 200 | 
45 | CCOC(=O)c1ccc(N2C(=O)CC(S/C(=N/c3ccccc3)NC(C)(C)C)C2=O)cc1 (centres unmarked) [Compound 88] |  | > 200 | 
